Laboratory results: article PMC9063842, “A GH115 α-glucuronidase structure reveals dimerization-mediated substrate binding and a proton wire potentially important for catalysis” (Acta Crystallographica. Section D, Structural Biology, 2022)

B1: wtsAgu115A (enzyme)
chain: AGDNKGITYEELNPERFTLLEKGTPTNILIDENEDQGVMIAATNLSEDFGRVSGTNAPLIFLPDNERLIIVGTLESRYIKELTENRKIKGDELKGKNEKYLMTVVDNPLPGVKEALIIAGSDKRGAIYGIYELSEQIGVSPWYDWADVPVKPQQNLSIERGSYTADEPAVTYRGIFLNDEAPALTSWVENTYGTKYGDHRFYSRVFELILRLRGNFLWPAMWDWSFYGDDPLNSKTADTMGIIMGTSHHEPMARNHQEWARNRDKYGVWDYTSNQEVIDQFFREGIERVKDTDDLITIGMRGDGDTPMPMGVKEGEDHLPSDEDNMRLLERIIKNQREIIGDVTGESPEKTPQVWAIYKEVQRYFDLGLRPPEDVIILLSDDNWGNVRRLPTEEERDHPGGWGMYYHFDYVGAPRSSKWLNISPIQNIWEQMQLTYDYGVDELWVANVGDLKPMEYPITLFLDMAWDPTRFNAENLLDHTRSFAAQQFGEDQADEAARIINLYSKYNGRVTPEMLDRNTYNLESGEWKKVSDEYIKLEAEALRQYLTLEPEQRDAYKQLILYPVQAMANLYEMYYSQAMNHKLYRENNPMANYWADRVEETFNRDAELSHDYNKVMANGKWDGMMTQKKIGYRSWNDNFPADTLPQIFRIENPEEATGGYVFTARDGVVVIEAEHYFEAKDAEEAKWTVIPYMGRTLSSIALMPYTKEVEGASLSYRMQIPDEVSEVKVHVVVKSTLPFHDPKGHEYRVGFEGGSKEIVNFNWNLNEEPENIYSVFYPTVASRVVKKDVTLDLHDTDDGFYTLTLEPLDPGIVFQKIVVDFGGYEESRLFMEESPNKRIEIE

Columns and labels:
wtsAgu115A = target: T1, wtsAgu115A (uncultured bacterium, UniProt A0ACD6BAS3); experiment: X-ray crystal structure, crystal soaking; type: binding; settings: 2.65 A; 0.2 M CaCl2, HEPES pH 7.5, 28% PEG 400; five of six xylose units visible; active site at dimer interface; Ca2+ near site; wild type inferred (Asp303 side chain H-bonds the ligand)
T1 construct: mature protein without 19-residue signal peptide, pET-28a (NcoI/XhoI), His-tag purified, E. coli BL21(DE3) pLysS; homodimer

[1] = target: the molecule itself; experiment: SEC; analytical gel filtration, HiLoad 16/60 Superdex G200, 10 mM sodium acetate, 150 mM NaCl pH 6, 0.5 ml/min; standards aldolase (158 kDa), conalbumin (75 kDa), ovalbumin (44 kDa)

| Molecule | X-ray crystal structure, crystal soaking (wtsAgu115A) | stoichiometry N [1] |
| --- | --- | --- |
| OC1OC[C@@H](O[C@@H]2OC[C@@H](O[C@@H]3OC[C@@H](O[C@@H]4OC[C@@H](O[C@@H]5OC[C@@H](O[C@@H]6OC[C@@H](O)[C@H](O)[C@H]6O)[C@H](O)[C@H]5O)[C@H](O)[C@H]4O)[C@H](O)[C@H]3O)[C@H](O)[C@H]2O)[C@H](O)[C@H]1O (some centres unmarked) [xylohexaose] | five β-1,4-linked D-xylopyranose moieties was observed in the crystal structure of wtsAgu115A soaked with xylohexaose |  |
| B1 |  | 2 |
